Measured values: ChEMBL document CHEMBL3885881, “DrugMatrix”

What was measured:
[1] = organism: Rattus norvegicus; test: DrugMatrix - Regimen: Daily Repeat; assay type: toxicity, organism-based, Sprague-Dawley; set-up: regimen Daily Repeat, gender Male, age 6-8 weeks; conditions: in vivo, po, 75 mg/kg, route oral GAVAGE, dose level High, vehicle .5 % CMC
[2] = organism: Rattus norvegicus; assay type: toxicity, organism-based, Sprague-Dawley; conditions: in vivo, po, 75 mg/kg, 24 h, route oral GAVAGE, dose level High, time 1 day, vehicle .5 % CMC
Description: DrugMatrix - Regimen: Single

[3] = […], tissue Plasma, time 14 day

Q: `COc1ccc(C2CNC(=O)C2)cc1OC1CCCC1` (centres undefined) [ROLIPRAM] was tested. Which “URIC ACID” value ([1]; 120 h, tissue Plasma, time 5 day) did it give?
A: 1.3 mg/dL

Q: And the “ABSOLUTE BASOPHIL” value ([1]; […], tissue Blood, time 14 day)?
A: 0 CELLS/uL

Q: And the “ABSOLUTE EOSINOPHIL” value ([1]; […], tissue Blood, time 14 day)?
A: 252.2 CELLS/uL

Q: And the “ABSOLUTE LYMPHOCYTE” value ([1]; […], tissue Blood, time 14 day)?
A: 9667.6 CELLS/uL

Q: And the “ABSOLUTE MONOCYTE” value ([1]; […], tissue Blood, time 14 day)?
A: 605.6 CELLS/uL

Q: What about the “ABSOLUTE SEGMENTED NEUTROPHIL” value ([1]; […], tissue Blood, time 14 day) of the same molecule?
A: 4994.6 CELLS/uL

Q: What about the BASOPHIL ([1]; […], tissue Blood, time 14 day) of the same molecule?
A: 0%

Q: And the EOSINOPHIL ([1]; […], tissue Blood, time 14 day)?
A: 1.6%

Q: What about the “ERYTHROCYTE COUNT” value ([1]; […], tissue Blood, time 14 day) of the same molecule?
A: 6.09 x10E6/uL

Q: What about the HEMATOCRIT ([1]; […], tissue Blood, time 14 day) of the same molecule?
A: 35.84%

Q: What about the HEMOGLOBIN ([1]; […], tissue Blood, time 14 day) of the same molecule?
A: 13.22 G/DL

Q: What about the “LEUKOCYTE COUNT” value ([1]; […], tissue Blood, time 14 day) of the same molecule?
A: 15.52 x10E3/uL

Q: What about the LYMPHOCYTE ([1]; […], tissue Blood, time 14 day) of the same molecule?
A: 69.8%

Q: What about the “MEAN CORPUSCULAR HEMOGLOBIN” value ([1]; […], tissue Blood, time 14 day) of the same molecule?
A: 21.78 pg

Q: And the “MEAN CORPUSCULAR HEMOGLOBIN CONCENTRATION” value ([1]; […], tissue Blood, time 14 day)?
A: 36.88 G/DL

Q: And the “MEAN CORPUSCULAR VOLUME” value ([1]; […], tissue Blood, time 14 day)?
A: 59 fL

Q: What about the MONOCYTE ([1]; […], tissue Blood, time 14 day) of the same molecule?
A: 3.4%

Q: And the NEUTROPHIL ([1]; […], tissue Blood, time 14 day)?
A: 25.2%

Q: And the “NUCLEATED RED BLOOD CELLS” value ([1]; […], tissue Blood, time 14 day)?
A: 0 /100WBC

Q: And the “PLATELET COUNT” value ([1]; […], tissue Blood, time 14 day)?
A: 1123.6 x10E3/uL

Q: What about the “ALANINE AMINOTRANSFERASE” value [1, 3] of the same molecule?
A: 56 u/L

Q: And the ALBUMIN [1, 3]?
A: 3.84 G/DL

Q: What about the “ALKALINE PHOSPHATASE” value [1, 3] of the same molecule?
A: 286.6 u/L

Q: And the “ASPARTATE AMINOTRANSFERASE” value [1, 3]?
A: 76.6 u/L

Q: And the “BLOOD UREA NITROGEN” value [1, 3]?
A: 15.4 mg/dL

Q: And the “CARBON DIOXIDE” value [1, 3]?
A: 31.8 mmol/L

Q: What about the CHLORIDE [1, 3] of the same molecule?
A: 104 MEQ/L

Q: And the CHOLESTEROL [1, 3]?
A: 55.8 mg/dL

Q: What about the CREATININE [1, 3] of the same molecule?
A: 0.19 mg/dL

Q: And the GLUCOSE [1, 3]?
A: 131.8 mg/dL

Q: What about the “LACTATE DEHYDROGENASE” value [1, 3] of the same molecule?
A: 80.4 u/L

Q: And the LIPASE [1, 3]?
A: 9 u/L

Q: And the PHOSPHORUS [1, 3]?
A: 9.08 mg/dL

Q: And the POTASSIUM [1, 3]?
A: 5.55 MEQ/L

Q: And the SODIUM [1, 3]?
A: 149.03 MEQ/L

Q: What about the “TOTAL BILIRUBIN” value [1, 3] of the same molecule?
A: 0.16 mg/dL

Q: What about the “TOTAL PROTEIN” value [1, 3] of the same molecule?
A: 5.98 G/DL

Q: What about the “URIC ACID” value [1, 3] of the same molecule?
A: 0.64 mg/dL

Q: And the “ABSOLUTE EOSINOPHIL” value ([2]; tissue Blood)?
A: 109.33 CELLS/uL

Q: What about the “ABSOLUTE LYMPHOCYTE” value ([2]; tissue Blood) of the same molecule?
A: 7018.33 CELLS/uL

Q: And the “ABSOLUTE MONOCYTE” value ([2]; tissue Blood)?
A: 257 CELLS/uL

Q: What about the “ABSOLUTE SEGMENTED NEUTROPHIL” value ([2]; tissue Blood) of the same molecule?
A: 1082 CELLS/uL

Q: What about the BASOPHIL ([2]; tissue Blood) of the same molecule?
A: 0%

Q: What about the EOSINOPHIL ([2]; tissue Blood) of the same molecule?
A: 1.33%

Q: What about the “ERYTHROCYTE COUNT” value ([2]; tissue Blood) of the same molecule?
A: 5.95 x10E6/uL

Q: And the HEMATOCRIT ([2]; tissue Blood)?
A: 37%

Q: And the HEMOGLOBIN ([2]; tissue Blood)?
A: 13.5 G/DL

Q: And the “LEUKOCYTE COUNT” value ([2]; tissue Blood)?
A: 8.47 x10E3/uL

Q: And the LYMPHOCYTE ([2]; tissue Blood)?
A: 83.33%

Q: What about the “MEAN CORPUSCULAR HEMOGLOBIN” value ([2]; tissue Blood) of the same molecule?
A: 22.7 pg

Q: What about the “MEAN CORPUSCULAR HEMOGLOBIN CONCENTRATION” value ([2]; tissue Blood) of the same molecule?
A: 36.47 G/DL

Q: What about the “MEAN CORPUSCULAR VOLUME” value ([2]; tissue Blood) of the same molecule?
A: 62.17 fL

Q: And the MONOCYTE ([2]; tissue Blood)?
A: 3%

Q: What about the NEUTROPHIL ([2]; tissue Blood) of the same molecule?
A: 12.33%

Q: And the “NUCLEATED RED BLOOD CELLS” value ([2]; tissue Blood)?
A: 0 /100WBC

Q: And the “PLATELET COUNT” value ([2]; tissue Blood)?
A: 1249.33 x10E3/uL

Q: What about the “ALANINE AMINOTRANSFERASE” value ([2]; tissue Plasma) of the same molecule?
A: 29 u/L

Q: What about the ALBUMIN ([2]; tissue Plasma) of the same molecule?
A: 4.47 G/DL

Q: What about the “ALKALINE PHOSPHATASE” value ([2]; tissue Plasma) of the same molecule?
A: 403.67 u/L

Q: What about the “ASPARTATE AMINOTRANSFERASE” value ([2]; tissue Plasma) of the same molecule?
A: 74.67 u/L

Q: What about the “BLOOD UREA NITROGEN” value ([2]; tissue Plasma) of the same molecule?
A: 13.33 mg/dL

Q: And the “CARBON DIOXIDE” value ([2]; tissue Plasma)?
A: 34.67 mmol/L

Q: What about the CHLORIDE ([2]; tissue Plasma) of the same molecule?
A: 103 MEQ/L

Q: What about the CHOLESTEROL ([2]; tissue Plasma) of the same molecule?
A: 69.67 mg/dL

Q: And the CREATININE ([2]; tissue Plasma)?
A: 0.18 mg/dL

Q: What about the GLUCOSE ([2]; tissue Plasma) of the same molecule?
A: 144.33 mg/dL

Q: And the “LACTATE DEHYDROGENASE” value ([2]; tissue Plasma)?
A: 95.67 u/L

Q: And the LIPASE ([2]; tissue Plasma)?
A: 8.67 u/L

Q: And the PHOSPHORUS ([2]; tissue Plasma)?
A: 11.1 mg/dL

Q: What about the POTASSIUM ([2]; tissue Plasma) of the same molecule?
A: 5.46 MEQ/L

Q: And the SODIUM ([2]; tissue Plasma)?
A: 151.33 MEQ/L

Q: What about the “TOTAL BILIRUBIN” value ([2]; tissue Plasma) of the same molecule?
A: 0.1 mg/dL

Q: And the “TOTAL PROTEIN” value ([2]; tissue Plasma)?
A: 6.4 G/DL

Q: What about the “URIC ACID” value ([2]; tissue Plasma) of the same molecule?
A: 1.17 mg/dL
